Assays:
human A2B receptors = biological target: T1, human A2B receptors (Homo sapiens, UniProt P29275); assay: Functional human A2B receptor activity, recombinant HEK293 cells, cAMP (HTRF); assay type: cell-based; details: read-out: A2B (Category)
T1 construct: expressed in transfected cells; host or cells: HEK293
T1 sequence (P29275 1-332): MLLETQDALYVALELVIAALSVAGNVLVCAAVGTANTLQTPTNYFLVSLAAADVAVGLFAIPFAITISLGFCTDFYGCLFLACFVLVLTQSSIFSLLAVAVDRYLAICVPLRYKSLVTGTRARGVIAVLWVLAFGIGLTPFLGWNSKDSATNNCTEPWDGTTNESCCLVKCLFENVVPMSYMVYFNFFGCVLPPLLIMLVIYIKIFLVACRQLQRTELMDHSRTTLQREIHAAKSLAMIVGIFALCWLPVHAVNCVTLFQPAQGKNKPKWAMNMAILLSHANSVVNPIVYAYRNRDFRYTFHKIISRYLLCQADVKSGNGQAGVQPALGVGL
Procedure: (§1) The functional activities of human A2A and A2B receptors were determined by quantification of cAMP, being the second messenger for adenosine receptors.
(§2) After a 15 min incubation, HTRF reagents (cAMP dynamic 2, Cis Bio) were added and the cellular cAMP levels were determined using the ENVISION (Perkin Elmer) plate reader.

human A2A receptors = biological target: T2, human A2A receptors (Homo sapiens, UniProt P29274); assay: Functional human A2A receptor activity, recombinant HEK293 cells, cAMP (HTRF); assay type: cell-based; details: read-out: A2A (Category)
T2 construct: expressed in transfected cells; host or cells: HEK293
Procedure: as §1, §2

T2 sequence (P29274 whole entry): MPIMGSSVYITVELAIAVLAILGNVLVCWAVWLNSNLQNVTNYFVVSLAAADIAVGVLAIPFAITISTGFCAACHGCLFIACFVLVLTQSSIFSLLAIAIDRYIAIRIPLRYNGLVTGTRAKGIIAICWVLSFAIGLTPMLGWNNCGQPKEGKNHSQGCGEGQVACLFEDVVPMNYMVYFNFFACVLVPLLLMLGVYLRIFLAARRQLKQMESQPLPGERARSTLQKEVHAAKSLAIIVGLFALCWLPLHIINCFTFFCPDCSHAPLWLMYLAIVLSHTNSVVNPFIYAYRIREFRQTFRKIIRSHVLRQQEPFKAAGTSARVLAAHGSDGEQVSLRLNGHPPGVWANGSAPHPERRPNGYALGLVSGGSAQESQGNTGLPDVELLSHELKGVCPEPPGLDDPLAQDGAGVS

Row | SMILES | IC50 (human A2B receptors) | IC50 (human A2A receptors)
1 | O=C(c1cc2c(cn1)c(-c1cnn3ccncc13)nn2CC(F)(F)F)N1CCCCCC1 [Compound 248, Azepan-1-yl-[3-pyrazolo[1,5-a]pyrazin-3-yl-1-(2,2,2-trifluoro-ethyl)-1H-pyrazolo[4,3-c]pyridin-6-yl]-methanone] | < 1000 nM | < 100 nM
2 | O=C(c1cc2c(cn1)c(-c1nnc3ccccn13)nn2CC(F)(F)F)N1CCCCCC1 [Compound 71, Azepan-1-yl-[3-[1,2,4]triazolo[4,3-a]pyridin-3-yl-1-(2,2,2-trifluoro-ethyl)-1H-pyrazolo[4,3-c]pyridin-6-yl]-methanone] | < 1000 nM | < 100 nM
3 | CS(=O)(=O)Cn1nc(-c2cnn3ccccc23)c2cnc(C(=O)N3CC4CCC(C4)C3)cc21 [Compound 18, (3-Aza-bicyclo[3.2.1]oct-3-yl)-(1-methanesulfonylmethyl-3-pyrazolo[1,5-a]pyridin-3-yl-1H-pyrazolo[4,3-c]pyridin-6-yl)-methanone] | < 1000 nM | < 100 nM
4 | CS(=O)(=O)Cn1nc(-c2coc3ccccc23)c2cnc(C(=O)N3CC4CCC(C3)O4)cc21 [Compound 107, (3-Benzofuran-3-yl-1-methanesulfonylmethyl-1H-pyrazolo[4,3-c]pyridine-6-yl)-(8-oxa-3-aza-bicyclo[3.2.1]oct-3-yl)-methanone] | < 100 nM | < 100 nM
5 | O=C(c1cc2c(cn1)c(-c1cnc3ccc(F)cn13)nn2CC(F)(F)F)N1CCCOCC1 [Compound 80, [3-(6-Fluoro-imidazo[1,2-a]pyridin-3-yl)-1-(2,2,2-trifluoro-ethyl)-1H-pyrazolo[4,3-c]pyridin-6-yl]-1,4-oxazepan-4-yl-methanone] | < 1000 nM | < 100 nM
6 | Cc1cc(C(N)=O)cn2c(-c3nn(CC(F)(F)F)c4cc(C(=O)N5CCCCCC5)ncc34)cnc12 [Compound 244, 3-[6-(Azepane-1-carbonyl)-1-(2,2,2-trifluoro-ethyl)-1H-pyrazolo[4,3-c]pyridin-3-yl]-8-methyl-imidazo[1,2-a]pyridine-6-carboxylic acid amide] | < 1000 nM | < 100 nM
7 | O=C(c1cc2c(cn1)c(-c1cnn3ccncc13)nn2CC(F)(F)F)N1CCCOCC1 [Compound 249, 1,4-Oxazepan-4-yl-[3-pyrazolo[1,5-a]pyrazin-3-yl-1-(2,2,2-trifluoro-ethyl)-1H-pyrazolo[4,3-c]pyridin-6-yl]-methanone] | < 1000 nM | < 100 nM
8 | CC1(O)CCN(C(=O)c2cc3c(cn2)c(-c2coc4ccccc24)nn3CC(F)(F)F)CC1 [Compound 208, [3-Benzofuran-3-yl-1-(2,2,2-trifluoro-ethyl)-1H-pyrazolo[4,3-c]pyridin-6-yl]-(4-hydroxy-4-methyl-piperidin-1-yl)-methanone] | < 100 nM | < 100 nM
9 | O=C(c1cc2c(cn1)c(-c1cnc3c(F)cc(F)cn13)nn2CC(F)(F)F)N1CCC(O)(C(F)(F)F)CC1 [Compound 148, [3-(6,8-Difluoro-imidazo[1,2-a]pyridin-3-yl)-1-(2,2,2-trifluoro-ethyl)-1H-pyrazolo[4,3-c]pyridin-6-yl]-(4-hydroxy-4-trifluoromethyl-piperidin-1-yl)-methanone] | < 1000 nM | < 1000 nM
10 | O=C(c1cc2c(cn1)c(-c1coc3ccccc13)nn2CC(F)(F)F)N1CCCC(O)CC1 (centres unmarked) [Compound 228, [3-(benzofuran-3-yl)-1-(2,2,2-trifluoroethyl)pyrazolo[4,3-c]pyridin-6-yl]-(4-hydroxyazepan-1-yl)methanone] | < 100 nM | < 100 nM
11 | O=C(c1cc2c(cn1)c(-c1cnc3c(F)cc(F)cn13)nn2CC(F)(F)F)N1CCC(F)(F)CC1 [Compound 146, [3-(6,8-Difluoro-imidazo[1,2-a]pyridin-3-yl)-1-(2,2,2-trifluoro-ethyl)-1H-pyrazolo[4,3-c]pyridin-6-yl]-(4,4-difluoro-piperidin-1-yl)-methanone] | < 1000 nM | < 100 nM
12 | O=C1CN(C(=O)c2cc3c(cn2)c(-c2cnc4c(F)cc(F)cn24)nn3CC(F)(F)F)CCCN1 [Compound 201, 4-[3-(6,8-Difluoro-imidazo[1,2-a]pyridin-3-yl)-1-(2,2,2-trifluoro-ethyl)-1H-pyrazolo[4,3-c]pyridine-6-carbonyl]-1,4-diazepan-2-one] | < 1000 nM | < 100 nM
13 | CS(=O)(=O)Cn1nc(-c2coc3ccc(F)cc23)c2cnc(C(=O)N3CC4CCC(C3)O4)cc21 [Compound 111, [3-(5-fluorobenzofuran-3-yl)-1-(methylsulfonylmethyl)pyrazolo[4,3-c]-pyridin-6-yl]-(8-oxa-3-azabicyclo[3.2.1]octan-3-yl)methanone] | < 100 nM | < 100 nM
14 | O=C(c1cc2c(cn1)c(-c1cnn3ccccc13)nn2CC(F)(F)F)N1CCCCCC1 [Compound 89, Azepan-1-yl-[3-pyrazolo[1,5-a]pyridin-3-yl-1-(2,2,2-trifluoro-ethyl)-1H-pyrazolo[4,3-c]pyridin-6-yl]-methanone hydrochoride] | < 100 nM | < 100 nM
15 | CS(=O)(=O)Cn1nc(-c2coc3ccccc23)c2cnc(C(=O)N3CCC(F)(F)CC3)cc21 [Compound 33, (3-Benzofuran-3-yl-1-methanesulfonylmethyl-1H-pyrazolo[4,3-c]pyridin-6-yl)-(4,4-difluoro-piperidin-1-yl)-methanone] | < 1000 nM | < 100 nM
16 | O=C(c1cc2c(cn1)c(-c1cnc3c(F)cc(F)cn13)nn2CC(F)(F)F)N1CCOC2(CCC2)C1 [Compound 192, [3-(6,8-Difluoro-imidazo[1,2-a]pyridin-3-yl)-1-(2,2,2-trifluoro-ethyl)-1H-pyrazolo[4,3-c]pyridin-6-yl]-(5-oxa-8-aza-spiro[3.5]non-8-yl)-methanone] | < 1000 nM | < 100 nM
17 | CC(C)(C)OC(=O)N1CC2CC1CN2C(=O)c1cc2c(cn1)c(-c1cnc3c(F)cc(F)cn13)nn2CC(F)(F)F (centres unmarked) [Compound 194, 5-[3-(6,8-Difluoro-imidazo[1,2-a]pyridin-3-yl)-1-(2,2,2-trifluoro-ethyl)-1H-pyrazolo[4,3-c]pyridine-6-carbonyl]-2,5-diaza-bicyclo[2.2.1]heptane-2-carboxylic Acid Tert-Butyl Ester] | < 100 nM | < 100 nM
18 | CC1CC(O)CCN1C(=O)c1cc2c(cn1)c(-c1cnc3c(F)cc(F)cn13)nn2CC(F)(F)F (centres unmarked) [Compound 138, [3-(6,8-Difluoro-imidazo[1,2-a]pyridin-3-yl)-1-(2,2,2-trifluoro-ethyl)-1H-pyrazolo[4,3-c]pyridin-6-yl]-(4-hydroxy-2-methyl-piperidin-1-yl)-methanone] | < 100 nM | < 100 nM
19 | CC1(O)C2CCC1CN(C(=O)c1cc3c(cn1)c(-c1cnc4c(F)cc(F)cn14)nn3CS(C)(=O)=O)C2 (stereo not drawn) [Compound 24, [3-(6,8-Difluoro-imidazo[1,2-a]pyridin-3-yl)-1-methanesulfonylmethyl-1H-pyrazolo[4,3-c]pyridin-6-yl]-(8-endo-hydroxy-8-exo-methyl-3-aza-bicyclo[3.2.1]oct-3-yl)-methanone] | < 100 nM | < 100 nM
20 | O=C(c1cc2c(cn1)c(-c1cnc3c(F)cc(F)cn13)nn2CC(F)(F)F)N1CCCC(CO)C1 (centres unmarked) [Compound 161, [3-(6,8-Difluoro-imidazo[1,2-a]pyridin-3-yl)-1-(2,2,2-trifluoro-ethyl)-1H-pyrazolo[4,3-c]pyridin-6-yl]-(3-hydroxymethyl-piperidin-1-yl)-methanone] | < 1000 nM | < 100 nM
21 | O=C(c1cc2c(cn1)c(-c1cnn3ccccc13)nn2CC(F)(F)F)N1CCOCC(O)C1 (centres unmarked) [Compound 119, (6-hydroxy-1,4-oxazepan-4-yl)-[3-pyrazolo[1,5-a]pyridin-3-yl-1-(2,2,2-trifluoroethyl)pyrazolo[4,3-c]pyridin-6-yl]methanone] | < 1000 nM | < 100 nM
22 | C[C@]1(O)[C@@H]2CC[C@H]1CN(C(=O)c1cc3c(cn1)c(-c1coc4ccccc14)nn3CC(F)(F)F)C2 [Compound 212, [3-Benzofuran-3-yl-1-(2,2,2-trifluoro-ethyl)-1H-pyrazolo[4,3-c]pyridin-6-yl]-(8-endo-hydroxy-8-exo-methyl-3-aza-bicyclo[3.2.1]oct-3-yl)-methanone] | < 1000 nM | < 100 nM
23 | CS(=O)(=O)n1nc(-c2cnc3c(F)cc(F)cn23)c2cnc(C(=O)N3CCCOCC3)cc21 [Compound 10, [3-(6,8-Difluoro-imidazo[1,2-a]pyridin-3-yl)-1-methanesulfonyl-1H-pyrazolo[4,3-c]pyridin-6-yl]-1,4-oxazepan-4-yl-methanone] | < 1000 nM | < 100 nM
24 | CC1(O)CCN(C(=O)c2cc3c(cn2)c(-c2cnc4c(F)cc(F)cn24)nn3CC(F)(F)F)CC1 [Compound 133, [3-(6,8-Difluoro-imidazo[1,2-a]pyridin-3-yl)-1-(2,2,2-trifluoro-ethyl)-1H-pyrazolo[4,3-c]pyridin-6-yl]-(4-hydroxy-4-methyl-piperidin-1-yl)-methanone] | < 1000 nM | < 100 nM
25 | O=C(c1cc2c(cn1)c(-c1coc3ccccc13)nn2CC(F)(F)F)N1CCCCCC1 [Compound 90, Azepan-1-yl-[3-benzofuran-3-yl-1-(2,2,2-trifluoro-ethyl)-1H-pyrazolo[4,3-c]pyridin-6-yl]-methanone] | < 100 nM | < 100 nM

Reference: patent publication US20210380606A1, “5-AZAINDAZOLE DERIVATIVES AS ADENOSINE RECEPTOR ANTAGONISTS” (Merck Patent GmbH, priority 2018, published 2021)
